Patent US20260176320A1, “MODULATORS OF G-PROTEIN COUPLED RECEPTORS” (priority 2018, published 2026)
Read-outs that look alike come from different tables or passages of the source.

Columns and labels:
Type in all cases: cell-based
GLP-1R [1] = biological target: T1, GLP-1R (Homo sapiens, UniProt P43220); experiment: HitHunter cAMP assay (GLP-1R); details: cAMP; for Emax: read-out: (Emax) GLP-1R
Procedure, shortened: (§1)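 cAMP, luminescence read: agonist 22-pt 2× dilution in DMSO, duplicate, 30 min RT on 10,000 cells/well in 1×HBSS/10 mM HEPES/625 μM IBMX/0.2% BSA; anti-cAMP reagent 1 h RT dark, then O/N RT dark before read.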

GIP-R = biological target: T2, GIP-R (Homo sapiens, UniProt P48546); experiment: HitHunter cAMP assay (GIP-R); details: cAMP; for Emax: read-out: (Emax) GIP-R
T2 sequence (P48546 22-466): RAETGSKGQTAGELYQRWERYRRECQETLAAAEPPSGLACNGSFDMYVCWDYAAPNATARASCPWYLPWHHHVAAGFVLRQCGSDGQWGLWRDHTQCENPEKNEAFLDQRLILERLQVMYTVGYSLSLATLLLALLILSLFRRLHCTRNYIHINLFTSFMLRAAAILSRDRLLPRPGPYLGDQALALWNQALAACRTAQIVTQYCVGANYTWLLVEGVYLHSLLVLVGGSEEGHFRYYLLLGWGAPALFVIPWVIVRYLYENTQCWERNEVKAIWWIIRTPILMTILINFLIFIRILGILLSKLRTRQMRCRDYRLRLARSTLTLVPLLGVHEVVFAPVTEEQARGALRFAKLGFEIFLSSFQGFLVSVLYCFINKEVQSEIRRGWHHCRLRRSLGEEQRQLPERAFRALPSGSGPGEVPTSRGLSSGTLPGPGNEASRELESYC
Procedure, shortened: as §1

GLP-1R [2] = biological target: T1, GLP-1R; experiment: PathHunter β-arrestin assay
Procedure, shortened: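 Luminescence read-out of β-arrestin recruitment (enzyme-fragment complementation detection, 3 h at room temperature in the dark) after 90 min agonist stimulation at 37 °C. Agonists tested as 22-point 2× serial dilutions in duplicate, in medium containing 0.2% BSA.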

T1 sequence (P43220 24-463): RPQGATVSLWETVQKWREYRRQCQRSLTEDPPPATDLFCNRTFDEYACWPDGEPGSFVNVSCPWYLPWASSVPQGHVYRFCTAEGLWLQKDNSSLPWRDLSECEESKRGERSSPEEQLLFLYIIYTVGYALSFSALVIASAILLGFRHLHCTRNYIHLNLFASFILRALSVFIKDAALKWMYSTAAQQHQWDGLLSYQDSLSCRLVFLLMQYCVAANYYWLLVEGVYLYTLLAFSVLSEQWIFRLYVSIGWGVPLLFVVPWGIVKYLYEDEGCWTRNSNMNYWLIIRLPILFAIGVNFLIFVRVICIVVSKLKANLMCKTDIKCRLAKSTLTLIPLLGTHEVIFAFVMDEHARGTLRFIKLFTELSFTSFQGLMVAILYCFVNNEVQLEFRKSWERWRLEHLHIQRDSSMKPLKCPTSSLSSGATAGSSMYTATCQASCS

Compound	EC50 (GLP-1R [1]; EC50 GLP-1R/nM, Table 3) [nM]	EC50 (GLP-1R [1]; EC50 GLP-1R/nM, Table 3A) [nM]	Emax (GLP-1R [1]; Table 3) [%]	Emax (GLP-1R [1]; Table 3A) [%]	EC50 (GIP-R; EC50 GIP-R/nM, Table 3) [nM]	EC50 (GIP-R; EC50 GIP-R/nM, Table 3A) [nM]	Emax (GIP-R; Table 3) [%]	Emax (GIP-R; Table 3A) [%]	EC50 (GLP-1R [2]) [nM]	EC50 (GLP-1R [1]; read-out: EC50 GLP-1R/nM, Table 3) [nM]	EC50 (GLP-1R [1]; read-out: EC50 GLP-1R/nM, Table 3A) [nM]	EC50 (GIP-R; read-out: EC50 GIP-R/nM, Table 3) [nM]	EC50 (GIP-R; read-out: EC50 GIP-R/nM, Table 3A) [nM]	EC50 (GLP-1R [1]; Table 3, read-out: EC50 GLP-1R/nM) [nM]	EC50 (GLP-1R [1]; Table 3A, read-out: EC50 GLP-1R/nM) [nM]	EC50 (GIP-R; Table 3, read-out: EC50 GIP-R/nM) [nM]	EC50 (GIP-R; Table 3A, read-out: EC50 GIP-R/nM) [nM]	EC50 (GLP-1R [2]; PathHunter β-arrestin assay, read-out: β-arrestin activity EC50) [nM]
CCCCCCCCCCCCCCCC(=O)N[C@@H](CCC(=O)NCCCC[C@H](NC(=O)[C@H](CO)NC(=O)[C@@H]1CCCN1C(=O)[C@@H]1CCCN1C(=O)[C@@H]1CCCN1C(=O)[C@H](C)NC(=O)CNC(=O)[C@H](CO)NC(=O)[C@H](CO)NC(=O)[C@@H]1CCCN1C(=O)CNC(=O)CNC(=O)[C@H](C)NC(=O)[C@H](CC(C)C)NC(=O)[C@H](CC(C)C)NC(=O)[C@H](Cc1c[nH]c2ccccc12)NC(=O)[C@H](CC(N)=O)NC(=O)[C@@H](NC(=O)[C@H](Cc1ccccc1)NC(=O)[C@H](CCC(=O)O)NC(=O)C(C)(C)NC(=O)[C@H](C)NC(=O)[C@H](C)NC(=O)[C@H](CCC(N)=O)NC(=O)[C@H](CCCCN)NC(=O)[C@H](CC(=O)O)NC(=O)[C@H](CC(C)C)NC(=O)[C@H](Cc1ccc(O)cc1)NC(=O)[C@@H](NC(=O)[C@H](CO)NC(=O)[C@H](Cc1ccc(O)cc1)NC(=O)[C@H](CC(=O)O)NC(=O)[C@H](CO)NC(=O)[C@@H](NC(=O)[C@H](Cc1ccccc1)NC(=O)[C@@H](NC(=O)CNC(=O)[C@H](CCC(=O)O)NC(=O)CSCC(=O)NCCN1C(=O)CCCC1=O)[C@@H](C)O)[C@@H](C)O)[C@@H](C)CC)C(C)C)C(N)=O)C(=O)O [Compound 123]	1 to 10	1 to 10	104	104	0.1 to 1	0.1 to 1	111	111	> 1000									
CC[C@H](C)[C@H](NC(=O)[C@H](CO)NC(=O)[C@H](Cc1ccc(O)cc1)NC(=O)[C@H](CC(=O)O)NC(=O)[C@H](CO)NC(=O)[C@@H](NC(=O)[C@H](Cc1ccccc1)NC(=O)[C@@H](NC(=O)CNC(=O)[C@H](CCC(=O)O)NC(=O)CSCC(=O)NCCN1C(=O)c2cc3ccccc3cc2C1=O)[C@@H](C)O)[C@@H](C)O)C(=O)N[C@@H](Cc1ccc(O)cc1)C(=O)N[C@@H](CC(C)C)C(=O)N[C@@H](CC(=O)O)C(=O)N[C@@H](CCCCN)C(=O)N[C@@H](CCC(N)=O)C(=O)N[C@@H](C)C(=O)N[C@@H](C)C(=O)NC(C)(C)C(=O)N[C@@H](CCC(=O)O)C(=O)N[C@@H](Cc1ccccc1)C(=O)N[C@H](C(=O)N[C@@H](CC(N)=O)C(=O)N[C@@H](Cc1c[nH]c2ccccc12)C(=O)N[C@@H](CC(C)C)C(=O)N[C@@H](CC(C)C)C(=O)N[C@@H](C)C(=O)NCC(=O)NCC(=O)N1CCC[C@H]1C(=O)N[C@@H](CO)C(=O)N[C@@H](CO)C(=O)NCC(=O)N[C@@H](C)C(=O)N1CCC[C@H]1C(=O)N1CCC[C@H]1C(=O)N1CCC[C@H]1C(=O)N[C@@H](CO)C(=O)N[C@@H](CCCCN)C(N)=O)C(C)C [Compound 163]	10 to 100	10 to 100	73	73	< 0.1	< 0.1	106	106	> 1000									
CC[C@H](C)[C@H](NC(=O)[C@H](CO)NC(=O)[C@H](Cc1ccc(O)cc1)NC(=O)[C@H](CC(=O)O)NC(=O)[C@H](CO)NC(=O)[C@@H](NC(=O)[C@H](Cc1ccccc1)NC(=O)[C@@H](NC(=O)CNC(=O)[C@H](CCC(=O)O)NC(=O)C(C)(C)C(=O)NCCCN1C(=O)c2ccc(C)cc2C1=O)[C@@H](C)O)[C@@H](C)O)C(=O)N[C@@H](Cc1ccc(O)cc1)C(=O)N[C@@H](CC(C)C)C(=O)N[C@@H](CC(=O)O)C(=O)N[C@@H](CCCCN)C(=O)N[C@@H](CCC(N)=O)C(=O)N[C@@H](C)C(=O)N[C@@H](C)C(=O)NC(C)(C)C(=O)N[C@@H](CCC(=O)O)C(=O)N[C@@H](Cc1ccccc1)C(=O)N[C@H](C(=O)N[C@@H](CC(N)=O)C(=O)N[C@@H](Cc1c[nH]c2ccccc12)C(=O)N[C@@H](CC(C)C)C(=O)N[C@@H](CC(C)C)C(=O)N[C@@H](C)C(=O)NCC(=O)NCC(=O)N1CCC[C@H]1C(=O)N[C@@H](CO)C(=O)N[C@@H](CO)C(=O)NCC(=O)N[C@@H](C)C(=O)N1CCC[C@H]1C(=O)N1CCC[C@H]1C(=O)N1CCC[C@H]1C(=O)N[C@@H](CO)C(=O)N[C@@H](CCCCN)C(N)=O)C(C)C [Compound 129]			91 to 95	91 to 95			102 to 109	102 to 109	> 1000	1 to 100	1 to 100	0.1 to 10	0.1 to 10					
CC[C@H](C)[C@H](NC(=O)[C@H](CO)NC(=O)[C@H](Cc1ccc(O)cc1)NC(=O)[C@H](CC(=O)O)NC(=O)[C@H](CO)NC(=O)[C@@H](NC(=O)[C@H](Cc1ccccc1)NC(=O)[C@@H](NC(=O)CNC(=O)[C@H](CCC(=O)O)NC(=O)CSCC(=O)NCCn1ccccc1=O)[C@@H](C)O)[C@@H](C)O)C(=O)N[C@@H](Cc1ccc(O)cc1)C(=O)N[C@@H](CC(C)C)C(=O)N[C@@H](CC(=O)O)C(=O)N[C@@H](CCCCN)C(=O)N[C@@H](CCC(N)=O)C(=O)N[C@@H](C)C(=O)N[C@@H](C)C(=O)NC(C)(C)C(=O)N[C@@H](CCC(=O)O)C(=O)N[C@@H](Cc1ccccc1)C(=O)N[C@H](C(=O)N[C@@H](CC(N)=O)C(=O)N[C@@H](Cc1c[nH]c2ccccc12)C(=O)N[C@@H](CC(C)C)C(=O)N[C@@H](CC(C)C)C(=O)N[C@@H](C)C(=O)NCC(=O)NCC(=O)N1CCC[C@H]1C(=O)N[C@@H](CO)C(=O)N[C@@H](CO)C(=O)NCC(=O)N[C@@H](C)C(=O)N1CCC[C@H]1C(=O)N1CCC[C@H]1C(=O)N1CCC[C@H]1C(=O)N[C@@H](CO)C(=O)N[C@@H](CCCCN)C(N)=O)C(C)C [Compound 139]			102	102			79	79						0.1 to 1	0.1 to 1	1 to 10	1 to 10	> 1000
CCCCCCCCCCCCCCCC(=O)N[C@@H](CCC(=O)NCCCC[C@H](NC(=O)[C@H](CO)NC(=O)[C@@H]1CCCN1C(=O)[C@@H]1CCCN1C(=O)[C@@H]1CCCN1C(=O)[C@H](C)NC(=O)CNC(=O)[C@H](CO)NC(=O)[C@H](CO)NC(=O)[C@@H]1CCCN1C(=O)CNC(=O)CNC(=O)[C@H](C)NC(=O)[C@H](CC(C)C)NC(=O)[C@H](CC(C)C)NC(=O)[C@H](Cc1c[nH]c2ccccc12)NC(=O)[C@H](CC(N)=O)NC(=O)[C@@H](NC(=O)[C@H](Cc1ccccc1)NC(=O)[C@H](CCC(=O)O)NC(=O)C(C)(C)NC(=O)[C@H](C)NC(=O)[C@H](C)NC(=O)[C@H](CCC(N)=O)NC(=O)[C@H](CCCCN)NC(=O)[C@H](CC(=O)O)NC(=O)[C@H](CC(C)C)NC(=O)[C@H](Cc1ccc(O)cc1)NC(=O)[C@@H](NC(=O)[C@H](CO)NC(=O)[C@H](Cc1ccc(O)cc1)NC(=O)[C@H](CC(=O)O)NC(=O)[C@H](CO)NC(=O)[C@@H](NC(=O)[C@H](Cc1ccccc1)NC(=O)[C@@H](NC(=O)CNC(=O)[C@H](CCC(=O)O)NC(=O)CSCC(=O)NCCN1C(=O)CC[C@H]1CO)[C@@H](C)O)[C@@H](C)O)[C@@H](C)CC)C(C)C)C(N)=O)C(=O)O [Compound 44]	0.1 to 1	0.1 to 1	97 to 99	97 to 99	1 to 10	1 to 10	54 to 67	54 to 67	> 1000									
CCCCCCCCCCCCCCCC(=O)N[C@@H](CCC(=O)NCCCC[C@H](NC(=O)[C@H](CO)NC(=O)[C@@H]1CCCN1C(=O)[C@@H]1CCCN1C(=O)[C@@H]1CCCN1C(=O)[C@H](C)NC(=O)CNC(=O)[C@H](CO)NC(=O)[C@H](CO)NC(=O)[C@@H]1CCCN1C(=O)CNC(=O)CNC(=O)[C@H](C)NC(=O)[C@H](CC(C)C)NC(=O)[C@H](CC(C)C)NC(=O)[C@H](Cc1c[nH]c2ccccc12)NC(=O)[C@H](CC(N)=O)NC(=O)[C@@H](NC(=O)[C@H](Cc1ccccc1)NC(=O)[C@H](CCC(=O)O)NC(=O)C(C)(C)NC(=O)[C@H](C)NC(=O)[C@H](C)NC(=O)[C@H](CCC(N)=O)NC(=O)[C@H](CCCCN)NC(=O)[C@H](CC(=O)O)NC(=O)[C@H](CC(C)C)NC(=O)[C@H](Cc1ccc(O)cc1)NC(=O)[C@@H](NC(=O)[C@H](CO)NC(=O)[C@H](Cc1ccc(O)cc1)NC(=O)[C@H](CC(=O)O)NC(=O)[C@H](CO)NC(=O)[C@@H](NC(=O)[C@H](Cc1ccccc1)NC(=O)[C@@H](NC(=O)CNC(=O)[C@H](CCC(=O)O)NC(=O)CSCC(=O)NCCN1CC[C@H](OC)C1=O)[C@@H](C)O)[C@@H](C)O)[C@@H](C)CC)C(C)C)C(N)=O)C(=O)O [Compound 14]	0.1 to 1	0.1 to 1	81	81	10 to 100		< 10		> 1000									
